For this experiment, the target named is Helios (IKZF2) (Homo sapiens, UniProt Q96SW2+Q9UKS7). The experiment can be described thus: Screening of Helios protein degraders using Nano-Glo HiBiT cell line (HiBiT-IKZF2). Particulars: 6 hours, HiBiT-Helios knock-in Jurkat cells; for remaining activity at 1 µM: compound 1 μM, read-out: HiBiT-IKZF2 Residual amount of Helios (%) 1 μM; for remaining activity at 10 µM: compound 10 μM, read-out: HiBiT-IKZF2 Residual amount of Helios (%) 10 μM. It is filed as cell-based. A general note: The HiBiT peptide binds its large partner to form an active luciferase.
Chain of Helios (IKZF2) (Q9UKS7 whole entry): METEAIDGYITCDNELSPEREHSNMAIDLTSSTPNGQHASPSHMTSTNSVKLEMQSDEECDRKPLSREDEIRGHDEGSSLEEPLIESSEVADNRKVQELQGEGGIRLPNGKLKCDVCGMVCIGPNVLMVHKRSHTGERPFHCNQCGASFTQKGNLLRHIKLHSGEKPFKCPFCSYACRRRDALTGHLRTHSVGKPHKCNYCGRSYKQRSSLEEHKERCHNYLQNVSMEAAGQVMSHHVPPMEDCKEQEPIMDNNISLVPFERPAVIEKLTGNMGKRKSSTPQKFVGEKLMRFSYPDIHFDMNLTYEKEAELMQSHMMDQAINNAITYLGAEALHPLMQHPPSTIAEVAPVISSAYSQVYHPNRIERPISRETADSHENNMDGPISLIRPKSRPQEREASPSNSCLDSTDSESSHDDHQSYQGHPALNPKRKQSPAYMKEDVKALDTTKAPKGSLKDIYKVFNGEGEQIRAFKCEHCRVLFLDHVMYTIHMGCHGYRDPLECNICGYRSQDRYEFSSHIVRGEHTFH
Chain of Helios (IKZF2) (Q96SW2 whole entry): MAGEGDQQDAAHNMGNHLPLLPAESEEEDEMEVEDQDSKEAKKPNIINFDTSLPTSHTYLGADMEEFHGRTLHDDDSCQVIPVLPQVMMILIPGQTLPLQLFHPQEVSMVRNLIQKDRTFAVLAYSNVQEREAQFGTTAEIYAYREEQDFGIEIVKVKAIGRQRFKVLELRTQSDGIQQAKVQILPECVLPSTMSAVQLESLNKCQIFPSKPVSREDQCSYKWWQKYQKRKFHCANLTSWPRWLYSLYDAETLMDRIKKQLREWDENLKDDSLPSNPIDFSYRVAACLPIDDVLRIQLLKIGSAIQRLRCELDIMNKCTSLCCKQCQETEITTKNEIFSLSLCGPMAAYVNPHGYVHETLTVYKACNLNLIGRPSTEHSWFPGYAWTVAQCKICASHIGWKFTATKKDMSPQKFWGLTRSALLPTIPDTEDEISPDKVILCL
Chain of Helios (IKZF2) (Q16531 whole entry partner): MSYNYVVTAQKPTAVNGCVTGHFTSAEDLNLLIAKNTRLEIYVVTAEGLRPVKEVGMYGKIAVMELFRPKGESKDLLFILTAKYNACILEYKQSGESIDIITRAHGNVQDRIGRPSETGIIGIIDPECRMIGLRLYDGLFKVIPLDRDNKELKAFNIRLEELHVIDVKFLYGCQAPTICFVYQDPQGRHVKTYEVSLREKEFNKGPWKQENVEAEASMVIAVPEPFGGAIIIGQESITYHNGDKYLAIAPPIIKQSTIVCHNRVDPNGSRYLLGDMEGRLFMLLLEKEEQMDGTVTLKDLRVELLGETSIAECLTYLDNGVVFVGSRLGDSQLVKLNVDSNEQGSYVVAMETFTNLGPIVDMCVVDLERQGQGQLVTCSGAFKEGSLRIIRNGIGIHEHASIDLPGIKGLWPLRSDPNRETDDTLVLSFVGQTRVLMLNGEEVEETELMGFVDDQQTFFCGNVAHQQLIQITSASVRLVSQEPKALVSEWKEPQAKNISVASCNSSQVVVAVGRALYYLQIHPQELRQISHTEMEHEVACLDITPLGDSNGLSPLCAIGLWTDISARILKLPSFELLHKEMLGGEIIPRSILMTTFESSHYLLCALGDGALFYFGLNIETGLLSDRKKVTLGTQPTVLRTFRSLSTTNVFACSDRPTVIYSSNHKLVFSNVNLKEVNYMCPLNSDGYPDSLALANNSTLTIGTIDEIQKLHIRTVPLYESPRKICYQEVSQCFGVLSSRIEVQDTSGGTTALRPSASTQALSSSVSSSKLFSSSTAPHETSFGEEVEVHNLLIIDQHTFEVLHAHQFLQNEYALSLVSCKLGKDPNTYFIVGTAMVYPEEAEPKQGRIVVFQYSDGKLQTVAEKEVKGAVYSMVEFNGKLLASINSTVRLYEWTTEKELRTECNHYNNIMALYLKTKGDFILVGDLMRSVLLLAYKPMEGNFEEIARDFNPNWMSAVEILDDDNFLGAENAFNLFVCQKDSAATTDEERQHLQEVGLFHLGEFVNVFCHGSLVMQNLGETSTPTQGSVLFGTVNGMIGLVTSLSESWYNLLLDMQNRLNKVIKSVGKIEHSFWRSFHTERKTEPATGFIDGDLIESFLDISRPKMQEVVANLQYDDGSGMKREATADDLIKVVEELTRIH

Consider `CCc1c(C(=O)N2CCC(c3ccc4c(c3)CN(C3CCC(=O)NC3=O)C4=O)CC2)[nH]c2ccccc12` (centres unmarked) [Compound 29, 3-(5-(1-(3-ethyl-1H-indole-2-carbonyl)piperidin-4-yl)-1-oxoinsoindolin-2-yl)piperidine-2,6-dione], for which the remaining activity at 1 µM is 73.6% and the remaining activity at 10 µM stood at 72.4%.

For `Cc1c(C(=O)N2CCC(N3CCC(c4ccc5c(c4)CN(C4CCC(=O)NC4=O)C5=O)CC3)CC2)[nH]c2cc(Cl)ccc12` (centres unmarked) [Compound 62, 3-(5-(1-(6-chloro-3-methyl-1H-indole-2-carbonyl)-[1,4′-bipiperidin]-4-yl)-1-oxoinsoindolin-2-yl)piperidine-2,6-dione], the remaining activity at 10 µM was found to be 23.8%.

On to `COc1ccc2cc(C(=O)Nc3ccc4c(c3)CN(C3CCC(=O)NC3=O)C4=O)ccc2c1` (centres unmarked) [Comparative Substance 4, N-(2-(2,6-dioxopiperidin-3-yl)-1-oxoindolin-5-yl)-6-methoxy-2-naphthamide, reference compound], for which the remaining activity at 1 µM was 58% and the remaining activity at 10 µM was determined as 56.2%.

For the compound `O=C1CCC(N2Cc3cc(C4CCN(C(=O)c5cc6ncc(Cl)cc6[nH]5)CC4)ccc3C2=O)C(=O)N1` (centres unmarked) [Compound 45, 3-(5-(1-(6-chloro-1H-picolo[3,2-b]pyridine-2-carbonyl)piperidin-4-yl)-1-oxoinsoindolin-2-yl)piperidine-2,6-dione], the remaining activity at 1 µM came to 70.3% and the remaining activity at 10 µM was determined as 58.2%.

As for `O=C1CCC(N2Cc3cc(C4CCN(C(=O)c5[nH]c6ccccc6c5CN5CCOCC5)CC4)ccc3C2=O)C(=O)N1` (centres unmarked) [Compound 34, 3-(5-(1-(3-(morpholinomethyl)-1H-indole-2-carbonyl)piperidin-4-yl)-1-oxoinsoindolin-2-yl)piperidine-2,6-dione], the remaining activity at 1 µM turned out to be 66.5% and the remaining activity at 10 µM was 43.5%.

Consider `Cc1c(C(=O)N2CCC(c3ccc4c(c3)CN(C3CCC(=O)NC3=O)C4=O)CC2)[nH]c2cc(Cl)cc(Cl)c12` (centres unmarked) [Compound 107, 3-(5-(1-(4,6-dichloro-3-methyl-1H-indole-2-carbonyl)piperidin-4-yl)-1-oxoinsoindolin-2-yl)piperidine-2,6-dione], for which the remaining activity at 1 µM was found to be 56.6% and the remaining activity at 10 µM worked out at 51.5%.

`Cc1c(C(=O)N2CC=C(c3ccc4c(c3)CN(C3CCC(=O)NC3=O)C4=O)CC2)[nH]c2cc(Cl)ccc12` (centres unmarked) [Compound 70, 3-(5-(1-(6-chloro-3-methyl-1H-indole-2-carbonyl)-1,2,3,6-tetrahydropyridin-4-yl)-1-oxoinsoindolin-2-yl)piperidine-2,6-dione]: the remaining activity at 1 µM stood at 94.8% and the remaining activity at 10 µM worked out at 101%.

For the compound `O=C1CCC(N2Cc3cc(C4CCN(C(=O)c5c[nH]c6cc(Cl)ccc56)CC4)ccc3C2=O)C(=O)N1` (centres unmarked) [Comparative Substance 2, 3-(5-(1-(6-chloro-1H-indole-3-carbonyl)piperidin-4-yl)-1-oxoinsoindolin-2-yl)piperidine-2,6-dione, reference compound], the remaining activity at 10 µM was 100%.

As to `O=C1CCC(N2Cc3cc(C4CCN(C(=O)C5=Nc6cccc(Cl)c6C5)CC4)ccc3C2=O)C(=O)N1` (centres unmarked) [Compound 4, 3-(5-(1-(4-chloro-1H-indole-2-carbonyl)piperidin-4-yl)-1-oxoinsoindolin-2-yl)piperidine-2,6-dione], the remaining activity at 1 µM is 104% and the remaining activity at 10 µM worked out at 106%.

`CN1CCN(Cc2c(C(=O)N3CCC(c4ccc5c(c4)CN(C4CCC(=O)NC4=O)C5=O)CC3)[nH]c3cc(Cl)ccc23)CC1` (centres unmarked) [Compound 114, 3-(5-(1-(6-chloro-3-((4-methylpiperazin-1-yl)methyl)-1H-indole-2-carbonyl)piperidin-4-yl)-1-oxoinsoindolin-2-yl)piperidine-2,6-dione]: the remaining activity at 1 µM is 31.8%.

For the compound `COc1ccc2[nH]c(C(=O)N3CCC(c4ccc5c(c4)CN(C4CCC(=O)NC4=O)C5=O)CC3)cc2c1` (centres unmarked) [Compound 10, 3-(5-(1-(5-methoxy-1H-indole-2-carbonyl)piperidin-4-yl)-1-oxoinsoindolin-2-yl)piperidine-2,6-dione], the remaining activity at 1 µM was 94.6% and the remaining activity at 10 µM worked out at 97.3%.

Take `Cc1c(C(=O)N2CCC(c3ccc4c(c3F)CN(C3CCC(=O)NC3=O)C4=O)CC2)[nH]c2c(F)c(C#N)ccc12` (centres unmarked) [Compound 122, 2-(4-(2-(2,6-dioxopiperidin-3-yl)-4-fluoro-1-oxoindolin-5-yl)piperidine-1-carbonyl)-7-fluoro-3-methyl-1H-indole-6-carbonitrile]: the remaining activity at 10 µM was determined as 11.2%.

Turning to `O=Cc1c(C(=O)N2CCC(c3ccc4c(c3)CN(C3CCC(=O)NC3=O)C4=O)CC2)[nH]c2cc(Cl)ccc12` (centres unmarked) [Compound 81, 6-chloro-2-(4-(2-(2,6-dioxopiperidin-3-yl)-1-oxoindolin-5-yl)piperidine-1-carbonyl)-1H-indole-3-carbaldehyde], the remaining activity at 10 µM is 28.7%.

For the compound `Cc1cccc2cc(C(=O)N3CCC(c4ccc5c(c4)CN(C4CCC(=O)NC4=O)C5=O)CC3)[nH]c12` (centres unmarked) [Compound 16, 3-(5-(1-(7-methyl-1H-indole-2-carbonyl)piperidin-4-yl)-1-oxoinsoindolin-2-yl)piperidine-2,6-dione], the remaining activity at 1 µM stood at 78.5% and the remaining activity at 10 µM is 80.4%.

With `O=C1CCC(N2Cc3cc(C4CCN(Cc5ccccc5)CC4)ccc3C2=O)C(=O)N1` (centres unmarked) [Comparative Substance 1 (DKY709), reference compound], the remaining activity at 10 µM worked out at 40%.

`Cc1c(C(=O)N2CCC(c3ccc4c(c3)CN(C3CCC(=O)NC3=O)C4=O)CC2)[nH]c2cc(CN3CCNCC3)ccc12` (centres unmarked) [Compound 106, 3-(5-(1-(3-methyl-6-(piperazin-1-ylmethyl)-1H-indole-2-carbonyl)piperidin-4-yl)-1-oxoinsoindolin-2-yl)piperidine-2,6-dione dichloride]: the remaining activity at 1 µM was found to be 42.8% and the remaining activity at 10 µM is 33.6%.

With `Cc1c(C(=O)N2CCC(c3ccc4c(c3)CN(C3CCC(=O)NC3=O)C4=O)CC2)[nH]c2cc(NS(C)(=O)=O)ccc12` (centres unmarked) [Compound 74, N-(2-(4-(2-(2,6-dioxopiperidin-3-yl)-1-oxoindolin-5-yl)piperidine-1-carbonyl)-3-methyl-1H-indol-6-yl) methanesulfonamide], the remaining activity at 1 µM came out at 73.2% and the remaining activity at 10 µM turned out to be 75.8%.

For `COc1c(C(=O)N2CCC(c3ccc4c(c3)CN(C3CCC(=O)NC3=O)C4=O)CC2)[nH]c2ccccc12` (centres unmarked) [Compound 30, 3-(5-(1-(3-methoxy-1H-indole-2-carbonyl)piperidin-4-yl)-1-oxoinsoindolin-2-yl)piperidine-2,6-dione], the remaining activity at 1 µM stood at 86.7% and the remaining activity at 10 µM was 78.7%.

Take `O=C1CCC(N2Cc3cc(C4CCN(C(=O)c5cc6ccc(O)cc6[nH]5)CC4)ccc3C2=O)C(=O)N1` (centres unmarked) [Compound 18, 3-(5-(1-(6-hydroxy-1H-indole-2-carbonyl)piperidin-4-yl)-1-oxoinsoindolin-2-yl)piperidine-2,6-dione]: the remaining activity at 1 µM is 53.6% and the remaining activity at 10 µM is 54.4%.

Values taken from US20260216164A1, “INDOLE COMPOUND DECOMPOSING IKZF2, AND USE THEREOF” (KOREA RESEARCH INSTITUTE OF CHEMICAL TECHNOLOGY, priority 2023, published 2026).
